According to the NIST ThermoML archive (doi:10.1021/je300358u):
Numbers after ± are expanded uncertainties.

Experiments:
[1] = mn = molality of the nth substance listed, in mol/kg; details: 101 kPa, Liquid
[2] = 101 kPa, Liquid
[3] = xn = mol fraction of the nth substance listed; details: 101 kPa, Liquid

NC(N)=O [urea] + O
mass density ([1]; 293.15 K, m1 = 0.02557): 998.624 ± 0.18 kg/m3 | mass density ([1]; 293.15 K, m1 = 0.05326): 999.077 ± 0.18 kg/m3 | mass density ([1]; 293.15 K, m1 = 0.07468): 999.427 ± 0.18 kg/m3 | mass density ([1]; 293.15 K, m1 = 0.09388): 999.747 ± 0.18 kg/m3 | mass density ([1]; 293.15 K, m1 = 0.1236): 1000.23 ± 0.18 kg/m3 | mass density ([1]; 293.15 K, m1 = 0.1442): 1000.57 ± 0.18 kg/m3 | mass density ([1]; 293.15 K, m1 = 0.1762): 1001.1 ± 0.18 kg/m3 | mass density ([1]; 293.15 K, m1 = 0.2005): 1001.5 ± 0.18 kg/m3 | mass density ([1]; 298.15 K, m1 = 0.02557): 997.458 ± 0.18 kg/m3 | mass density ([1]; 298.15 K, m1 = 0.05326): 997.903 ± 0.18 kg/m3 | mass density ([1]; 298.15 K, m1 = 0.07468): 998.251 ± 0.18 kg/m3 | mass density ([1]; 298.15 K, m1 = 0.09388): 998.559 ± 0.18 kg/m3 | mass density ([1]; 298.15 K, m1 = 0.1236): 999.04 ± 0.18 kg/m3 | mass density ([1]; 298.15 K, m1 = 0.1442): 999.367 ± 0.18 kg/m3 | mass density ([1]; 298.15 K, m1 = 0.1762): 999.891 ± 0.18 kg/m3 | mass density ([1]; 298.15 K, m1 = 0.2005): 1000.28 ± 0.18 kg/m3 | mass density ([1]; 303.15 K, m1 = 0.02557): 996.057 ± 0.19 kg/m3 | mass density ([1]; 303.15 K, m1 = 0.05326): 996.499 ± 0.19 kg/m3 | mass density ([1]; 303.15 K, m1 = 0.07468): 996.841 ± 0.18 kg/m3 | mass density ([1]; 303.15 K, m1 = 0.09388): 997.145 ± 0.18 kg/m3 | mass density ([1]; 303.15 K, m1 = 0.1236): 997.618 ± 0.18 kg/m3 | mass density ([1]; 303.15 K, m1 = 0.1442): 997.949 ± 0.18 kg/m3 | mass density ([1]; 303.15 K, m1 = 0.1762): 998.455 ± 0.18 kg/m3 | mass density ([1]; 303.15 K, m1 = 0.2005): 998.84 ± 0.18 kg/m3 | mass density ([1]; 308.15 K, m1 = 0.02557): 994.437 ± 0.19 kg/m3 | mass density ([1]; 308.15 K, m1 = 0.05326): 994.868 ± 0.19 kg/m3 | mass density ([1]; 308.15 K, m1 = 0.07468): 995.206 ± 0.19 kg/m3 | mass density ([1]; 308.15 K, m1 = 0.09388): 995.501 ± 0.19 kg/m3 | mass density ([1]; 308.15 K, m1 = 0.1236): 995.97 ± 0.19 kg/m3 | mass density ([1]; 308.15 K, m1 = 0.1442): 996.288 ± 0.19 kg/m3 | mass density ([1]; 308.15 K, m1 = 0.1762): 996.793 ± 0.19 kg/m3 | mass density ([1]; 308.15 K, m1 = 0.2005): 997.172 ± 0.18 kg/m3

CN(C)C=O [dimethylformamide]
mass density ([2]; 293.15 K): 948.742 ± 0.38 kg/m3 | mass density ([2]; 298.15 K): 943.976 ± 0.39 kg/m3 | mass density ([2]; 303.15 K): 939.201 ± 0.4 kg/m3 | mass density ([2]; 308.15 K): 934.425 ± 0.4 kg/m3

NC(N)=O [urea] + CN(C)C=O
mass density ([1]; 293.15 K, m1 = 0.02524): 949.268 ± 0.26 kg/m3 | mass density ([1]; 293.15 K, m1 = 0.05973): 949.989 ± 0.26 kg/m3 | mass density ([1]; 293.15 K, m1 = 0.07556): 950.317 ± 0.26 kg/m3 | mass density ([1]; 293.15 K, m1 = 0.1157): 951.155 ± 0.26 kg/m3 | mass density ([1]; 293.15 K, m1 = 0.1479): 951.829 ± 0.25 kg/m3 | mass density ([1]; 293.15 K, m1 = 0.1749): 952.395 ± 0.25 kg/m3 | mass density ([1]; 293.15 K, m1 = 0.2003): 952.924 ± 0.25 kg/m3 | mass density ([1]; 293.15 K, m1 = 0.2305): 953.553 ± 0.25 kg/m3 | mass density ([1]; 298.15 K, m1 = 0.02524): 944.504 ± 0.27 kg/m3 | mass density ([1]; 298.15 K, m1 = 0.05973): 945.228 ± 0.26 kg/m3 | mass density ([1]; 298.15 K, m1 = 0.07556): 945.556 ± 0.26 kg/m3 | mass density ([1]; 298.15 K, m1 = 0.1157): 946.396 ± 0.26 kg/m3 | mass density ([1]; 298.15 K, m1 = 0.1479): 947.074 ± 0.26 kg/m3 | mass density ([1]; 298.15 K, m1 = 0.1749): 947.644 ± 0.26 kg/m3 | mass density ([1]; 298.15 K, m1 = 0.2003): 948.173 ± 0.26 kg/m3 | mass density ([1]; 298.15 K, m1 = 0.2305): 948.805 ± 0.26 kg/m3 | mass density ([1]; 303.15 K, m1 = 0.02524): 939.731 ± 0.27 kg/m3 | mass density ([1]; 303.15 K, m1 = 0.05973): 940.469 ± 0.27 kg/m3 | mass density ([1]; 303.15 K, m1 = 0.07556): 940.781 ± 0.27 kg/m3 | mass density ([1]; 303.15 K, m1 = 0.1157): 941.642 ± 0.27 kg/m3 | mass density ([1]; 303.15 K, m1 = 0.1479): 942.307 ± 0.27 kg/m3 | mass density ([1]; 303.15 K, m1 = 0.1749): 942.893 ± 0.27 kg/m3 | mass density ([1]; 303.15 K, m1 = 0.2003): 943.423 ± 0.27 kg/m3 | mass density ([1]; 303.15 K, m1 = 0.2305): 944.061 ± 0.27 kg/m3 | mass density ([1]; 308.15 K, m1 = 0.02524): 934.955 ± 0.28 kg/m3 | mass density ([1]; 308.15 K, m1 = 0.05973): 935.685 ± 0.28 kg/m3 | mass density ([1]; 308.15 K, m1 = 0.07556): 936.015 ± 0.28 kg/m3 | mass density ([1]; 308.15 K, m1 = 0.1157): 936.861 ± 0.28 kg/m3 | mass density ([1]; 308.15 K, m1 = 0.1479): 937.543 ± 0.28 kg/m3 | mass density ([1]; 308.15 K, m1 = 0.1749): 938.117 ± 0.27 kg/m3 | mass density ([1]; 308.15 K, m1 = 0.2003): 938.649 ± 0.27 kg/m3 | mass density ([1]; 308.15 K, m1 = 0.2305): 939.284 ± 0.27 kg/m3

CN(C)C=O [dimethylformamide] + O
mass density ([3]; 293.15 K, x2 = 0): 948.742 ± 0.38 kg/m3 | mass density ([3]; 293.15 K, x2 = 0.1): 953.736 ± 0.35 kg/m3 | mass density ([3]; 293.15 K, x2 = 0.2): 959.305 ± 0.31 kg/m3 | mass density ([3]; 293.15 K, x2 = 0.3): 965.7 ± 0.28 kg/m3 | mass density ([3]; 293.15 K, x2 = 0.4): 972.992 ± 0.25 kg/m3 | mass density ([3]; 293.15 K, x2 = 0.5): 980.854 ± 0.22 kg/m3 | mass density ([3]; 293.15 K, x2 = 0.6): 988.587 ± 0.19 kg/m3 | mass density ([3]; 293.15 K, x2 = 0.7): 995.526 ± 0.16 kg/m3 | mass density ([3]; 293.15 K, x2 = 0.8): 999.822 ± 0.14 kg/m3 | mass density ([3]; 293.15 K, x2 = 0.9): 999.742 ± 0.13 kg/m3 | mass density ([3]; 293.15 K, x2 = 0.92): 999.208 ± 0.13 kg/m3 | mass density ([3]; 293.15 K, x2 = 0.94): 998.608 ± 0.13 kg/m3 | mass density ([3]; 293.15 K, x2 = 0.96): 998.059 ± 0.13 kg/m3 | mass density ([3]; 293.15 K, x2 = 0.98): 997.768 ± 0.13 kg/m3 | mass density ([3]; 298.15 K, x2 = 0): 943.976 ± 0.39 kg/m3 | mass density ([3]; 298.15 K, x2 = 0.1): 948.984 ± 0.35 kg/m3 | mass density ([3]; 298.15 K, x2 = 0.2): 954.568 ± 0.32 kg/m3 | mass density ([3]; 298.15 K, x2 = 0.3): 960.987 ± 0.29 kg/m3 | mass density ([3]; 298.15 K, x2 = 0.4): 968.301 ± 0.25 kg/m3 | mass density ([3]; 298.15 K, x2 = 0.5): 976.205 ± 0.23 kg/m3 | mass density ([3]; 298.15 K, x2 = 0.6): 984.021 ± 0.2 kg/m3 | mass density ([3]; 298.15 K, x2 = 0.7): 991.172 ± 0.17 kg/m3 | mass density ([3]; 298.15 K, x2 = 0.8): 995.944 ± 0.15 kg/m3 | mass density ([3]; 298.15 K, x2 = 0.9): 996.891 ± 0.14 kg/m3 | mass density ([3]; 298.15 K, x2 = 0.92): 996.65 ± 0.14 kg/m3 | mass density ([3]; 298.15 K, x2 = 0.94): 996.378 ± 0.14 kg/m3 | mass density ([3]; 298.15 K, x2 = 0.96): 996.181 ± 0.14 kg/m3 | mass density ([3]; 298.15 K, x2 = 0.98): 996.264 ± 0.13 kg/m3 | mass density ([3]; 303.15 K, x2 = 0): 939.201 ± 0.4 kg/m3 | mass density ([3]; 303.15 K, x2 = 0.1): 944.221 ± 0.36 kg/m3 | mass density ([3]; 303.15 K, x2 = 0.2): 949.818 ± 0.33 kg/m3 | mass density ([3]; 303.15 K, x2 = 0.3): 956.248 ± 0.29 kg/m3 | mass density ([3]; 303.15 K, x2 = 0.4): 963.582 ± 0.26 kg/m3 | mass density ([3]; 303.15 K, x2 = 0.5): 971.522 ± 0.23 kg/m3 | mass density ([3]; 303.15 K, x2 = 0.6): 979.424 ± 0.2 kg/m3 | mass density ([3]; 303.15 K, x2 = 0.7): 986.773 ± 0.18 kg/m3 | mass density ([3]; 303.15 K, x2 = 0.8): 992.004 ± 0.16 kg/m3 | mass density ([3]; 303.15 K, x2 = 0.9): 993.926 ± 0.14 kg/m3 | mass density ([3]; 303.15 K, x2 = 0.92): 993.962 ± 0.14 kg/m3 | mass density ([3]; 303.15 K, x2 = 0.94): 993.992 ± 0.14 kg/m3 | mass density ([3]; 303.15 K, x2 = 0.96): 994.123 ± 0.14 kg/m3 | mass density ([3]; 303.15 K, x2 = 0.98): 994.548 ± 0.14 kg/m3 | mass density ([3]; 308.15 K, x2 = 0): 934.425 ± 0.4 kg/m3 | mass density ([3]; 308.15 K, x2 = 0.1): 939.444 ± 0.36 kg/m3 | mass density ([3]; 308.15 K, x2 = 0.2): 945.04 ± 0.33 kg/m3 | mass density ([3]; 308.15 K, x2 = 0.3): 951.488 ± 0.3 kg/m3 | mass density ([3]; 308.15 K, x2 = 0.4): 958.821 ± 0.27 kg/m3 | mass density ([3]; 308.15 K, x2 = 0.5): 966.807 ± 0.24 kg/m3 | mass density ([3]; 308.15 K, x2 = 0.6): 974.79 ± 0.21 kg/m3 | mass density ([3]; 308.15 K, x2 = 0.7): 982.324 ± 0.18 kg/m3 | mass density ([3]; 308.15 K, x2 = 0.8): 988.003 ± 0.16 kg/m3 | mass density ([3]; 308.15 K, x2 = 0.9): 990.852 ± 0.15 kg/m3 | mass density ([3]; 308.15 K, x2 = 0.92): 991.147 ± 0.15 kg/m3 | mass density ([3]; 308.15 K, x2 = 0.94): 991.46 ± 0.14 kg/m3 | mass density ([3]; 308.15 K, x2 = 0.96): 991.894 ± 0.14 kg/m3 | mass density ([3]; 308.15 K, x2 = 0.98): 992.639 ± 0.14 kg/m3
